Publication PMC9299836 (eLife, 2022)
Where “and” joins values, the source holds several entries; their conditions need not be identical. Equal entries are not always repeated. Where two headings read alike, the source gives them in different places.

Key:
[1] = molecular target: mGluR2 (Mus musculus, UniProt Q14BI2, A548F); test: Live-cell FRET, azi-CRD (cysteine-rich domain) sensor in HEK293T cells; conditions: for Normalized FRET response, Mean (azi-CRD agonist DRC): maximal responses normalized to 1mM glutamate
[2] = molecular target: T1, mGluR2 (Mus musculus, UniProt Q14BI2); test: Live-cell FRET, SNAP-m2 (VFT domain) inter-subunit sensor in HEK293T cells; conditions: for Normalized FRET response, Mean (SNAP-m2 agonist DRC): maximal responses normalized to 1mM glutamate;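 as to all read-outs here: apparent FRET efficiency from whole-membrane ROIs of single cells, corrected for donor bleed-through and background, ΔFRET as treatment minus pretreatment signal, recorded at room temperature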
[3] = molecular target: mGluR2 (Mus musculus, UniProt Q14BI2, INS715F); test: Live-cell FRET, azi-ECL2 (7TM domain, extracellular loop 2) sensor in HEK293T cells;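 also: Cy3/Cy5 click-labeled sensor, whole-membrane ROIs per cell, apparent FRET after bleed-through correction, ΔFRET as treatment minus pre-treatment signal, at room temperature, at least three biological replicates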
[4] = molecular target: T1, mGluR2; test: Functional calcium imaging, SNAP-mGluR2 (no FLAG-tag) with chimeric G protein Gqo5 in HEK293T cells; assay type: cell-based; set-up: Full length mGluR2 construct with an amber codon (TAG) mutation of amino acid A548 (azi-CRD) or N-terminal SNAP-tag (SNAP-mGluR2); host or cells: HEK293T; conditions: for Intracellular Ca2+ response, Mean / Intracellular Ca2+ response: normalized to 1mM glutamate; for Intracellular Ca2+ response: single experiments

Chain of mGluR2 (Mus musculus, UniProt Q14BI2, A548F) (Q14BI2 19-872 A548F): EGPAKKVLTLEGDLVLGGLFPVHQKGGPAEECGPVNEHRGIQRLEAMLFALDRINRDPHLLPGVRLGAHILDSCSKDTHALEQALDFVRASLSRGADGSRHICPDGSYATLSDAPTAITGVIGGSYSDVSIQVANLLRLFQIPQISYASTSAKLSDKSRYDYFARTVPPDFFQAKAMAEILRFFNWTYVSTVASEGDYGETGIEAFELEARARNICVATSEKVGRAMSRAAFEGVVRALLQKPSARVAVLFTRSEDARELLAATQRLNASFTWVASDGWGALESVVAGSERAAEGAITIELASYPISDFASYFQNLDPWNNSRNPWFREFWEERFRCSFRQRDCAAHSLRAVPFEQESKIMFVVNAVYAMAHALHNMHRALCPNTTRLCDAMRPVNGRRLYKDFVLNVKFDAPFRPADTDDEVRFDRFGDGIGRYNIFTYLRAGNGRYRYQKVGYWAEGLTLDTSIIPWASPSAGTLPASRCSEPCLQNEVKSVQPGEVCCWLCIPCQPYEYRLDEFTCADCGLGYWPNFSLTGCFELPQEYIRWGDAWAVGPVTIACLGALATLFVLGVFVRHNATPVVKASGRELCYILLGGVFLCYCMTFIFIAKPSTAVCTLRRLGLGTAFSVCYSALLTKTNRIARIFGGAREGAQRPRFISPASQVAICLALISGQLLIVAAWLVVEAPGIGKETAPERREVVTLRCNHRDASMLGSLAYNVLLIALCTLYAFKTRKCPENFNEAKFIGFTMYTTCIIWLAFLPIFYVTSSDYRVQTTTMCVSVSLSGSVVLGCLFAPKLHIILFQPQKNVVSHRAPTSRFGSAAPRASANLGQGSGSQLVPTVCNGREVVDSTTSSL
Chain of mGluR2 (Mus musculus, UniProt Q14BI2, INS715F) (Q14BI2 with tags, fused parts or gaps INS715F): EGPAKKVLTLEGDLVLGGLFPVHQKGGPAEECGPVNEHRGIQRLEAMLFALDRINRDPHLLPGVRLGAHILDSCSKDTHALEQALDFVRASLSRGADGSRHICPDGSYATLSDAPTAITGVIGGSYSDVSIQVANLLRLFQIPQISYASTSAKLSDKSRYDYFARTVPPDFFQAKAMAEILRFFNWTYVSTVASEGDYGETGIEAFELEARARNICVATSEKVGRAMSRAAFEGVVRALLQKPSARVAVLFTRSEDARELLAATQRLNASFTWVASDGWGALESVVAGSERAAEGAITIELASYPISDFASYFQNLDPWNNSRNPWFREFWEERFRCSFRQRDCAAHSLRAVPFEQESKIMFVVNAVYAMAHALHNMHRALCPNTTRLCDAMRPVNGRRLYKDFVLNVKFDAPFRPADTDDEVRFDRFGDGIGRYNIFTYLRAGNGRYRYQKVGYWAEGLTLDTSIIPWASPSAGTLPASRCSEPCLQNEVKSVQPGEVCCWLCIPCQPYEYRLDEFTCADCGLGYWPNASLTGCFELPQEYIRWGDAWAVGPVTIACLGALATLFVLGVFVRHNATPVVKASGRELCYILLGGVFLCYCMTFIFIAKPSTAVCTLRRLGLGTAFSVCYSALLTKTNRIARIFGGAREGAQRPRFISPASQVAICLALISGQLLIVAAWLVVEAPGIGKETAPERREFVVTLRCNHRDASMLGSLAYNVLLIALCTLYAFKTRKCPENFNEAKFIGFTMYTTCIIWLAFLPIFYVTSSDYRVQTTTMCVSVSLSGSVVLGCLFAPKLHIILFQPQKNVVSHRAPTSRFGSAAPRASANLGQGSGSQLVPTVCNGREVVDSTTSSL
T1 sequence (Q14BI2 19-872): as the sequence (Q14BI2 19-872 A548F) above, with F530A counted along it

## N[C@@]1(C(=O)O)CN[C@@H](C(=O)O)C1 [(2R,4R)-APDC]
[1]; azi-CRD sensor, orthosteric agonist alone
  Hill slope: 1.10
[1]; azi-CRD sensor, (2R,4R)-APDC, individual values (N=13)
  Live-cell FRET max response normalized to 1mM glutamate: 1.025 and 1.046 and 1.029 and 1.018 and 1.041 and 0.9926 and 1.05 and 1.031 and 1.033 and 1.059 and 0.9828 and 0.9967 and 0.9994
[1]; azi-CRD, agonist alone (1 mM glutamate, 100 μM DCG-IV, 20 μM LY379268, 100 μM APDC), normalized to 1 mM glutamate
  Mean max response (normalized max ΔFRET): 1.02
[1]; azi-CRD, 100μM agonist, individual cells, normalized to 1mM glutamate
  Normalized Max ΔFRET: 105.882 and 99.2629 and 105.009 and 103.1 and 103.252 and 98.2759 and 99.67 and 99.937 and 102.531 and 104.556 and 102.893 and 101.835 and 104.136
[1]; azi-CRD, 100μM agonist, mean of cells, normalized to 1mM glutamate
  Normalized Max ΔFRET, Mean: 102.334
[1]; log[ligand] (M) -4
  Normalized FRET response, Mean (azi-CRD agonist DRC): 1.023
[1]; log[ligand] (M) -4.1549
  Normalized FRET response, Mean (azi-CRD agonist DRC): 1.003
[1]; log[ligand] (M) -4.52288
  Normalized FRET response, Mean (azi-CRD agonist DRC): 0.929
[1]; log[ligand] (M) -5
  Normalized FRET response, Mean (azi-CRD agonist DRC): 0.7432
[1]; log[ligand] (M) -5.39794
  Normalized FRET response, Mean (azi-CRD agonist DRC): 0.4945
[1]; log[ligand] (M) -5.82391
  Normalized FRET response, Mean (azi-CRD agonist DRC): 0.2779
[1]; log[ligand] (M) -6.52288
  Normalized FRET response, Mean (azi-CRD agonist DRC): 0.07413
[1]; log[ligand] (M) -7
  Normalized FRET response, Mean (azi-CRD agonist DRC): 0
[1]; read-out: Mean half-maximum effective concentration (EC50), azi-CRD sensor, orthosteric agonist alone
  EC50: 6.5 µM
[2]; SNAP-m2 (VFT), agonist alone (1 mM glutamate, 100 μM DCG-IV, 20 μM LY379268, 100 μM APDC), normalized to 1 mM glutamate
  Mean max response (normalized max ΔFRET): 0.96
[2]; SNAP-m2, 100μM agonist, individual cells, normalized to 1mM glutamate
  Normalized Max ΔFRET: 103.479 and 93.3266 and 93.5994 and 94.2433 and 93.7977 and 94.1947 and 102.7 and 100.974 and 101.936 and 101.611 and 93.0019 and 94.3775 and 90.2119 and 91.2088
[2]; SNAP-m2, 100μM agonist, mean of cells, normalized to 1mM glutamate
  Normalized Max ΔFRET, Mean: 96.333
[2]; SNAP-m2 sensor, orthosteric agonist alone
  Hill slope: –1.10
[2]; SNAP-m2 sensor, (2R,4R)-APDC, individual values (N=14)
  Live-cell FRET max response normalized to 1mM glutamate: 1.016 and 0.93 and 0.9438 and 0.9021 and 0.9121 and 0.9333 and 0.936 and 0.9424 and 0.938 and 0.9419 and 1.035 and 1.027 and 1.01 and 1.019
[2]; log[ligand] (M) -4
  Normalized FRET response, Mean (SNAP-m2 agonist DRC): -0.9633
[2]; log[ligand] (M) -4.52288
  Normalized FRET response, Mean (SNAP-m2 agonist DRC): -0.8729
[2]; log[ligand] (M) -5
  Normalized FRET response, Mean (SNAP-m2 agonist DRC): -0.684
[2]; log[ligand] (M) -5.39794
  Normalized FRET response, Mean (SNAP-m2 agonist DRC): -0.4889
[2]; log[ligand] (M) -6
  Normalized FRET response, Mean (SNAP-m2 agonist DRC): -0.1727
[2]; log[ligand] (M) -6.52288
  Normalized FRET response, Mean (SNAP-m2 agonist DRC): -0.05437
[2]; log[ligand] (M) -7
  Normalized FRET response, Mean (SNAP-m2 agonist DRC): 0
[2]; log[ligand] (M) -7.69897
  Normalized FRET response, Mean (SNAP-m2 agonist DRC): 0
[2]; read-out: Live-cell FRET titration EC50, SNAP-m2, agonist alone, individual experiments
  EC50: 2.88 µM and 3.03 µM and 3.16 µM and 22.1 µM and 5.53 µM and 4.87 µM
[2]; read-out: Mean half-maximum effective concentration (EC50), SNAP-m2 sensor, orthosteric agonist alone
  EC50: 6.9 µM
[3]; azi-ECL2, agonist alone (1 mM glutamate, 100 μM DCG-IV, 20 μM LY379268, 100 μM APDC), normalized to 1 mM glutamate
  Mean max response (normalized max ΔFRET): 1.05
[3]; azi-ECL2, log[agonist] (M) -4, normalized to 1 mM glutamate
  Normalized ΔFRET response, Mean (agonist DRC): 1.046
[3]; azi-ECL2, log[agonist] (M) -4.1549, normalized to 1 mM glutamate
  Normalized ΔFRET response, Mean (agonist DRC): 1.0205
[3]; azi-ECL2, log[agonist] (M) -4.52288, normalized to 1 mM glutamate
  Normalized ΔFRET response, Mean (agonist DRC): 0.9248
[3]; azi-ECL2, log[agonist] (M) -5, normalized to 1 mM glutamate
  Normalized ΔFRET response, Mean (agonist DRC): 0.7108
[3]; azi-ECL2, log[agonist] (M) -5.39794, normalized to 1 mM glutamate
  Normalized ΔFRET response, Mean (agonist DRC): 0.4486
[3]; azi-ECL2, log[agonist] (M) -5.82391, normalized to 1 mM glutamate
  Normalized ΔFRET response, Mean (agonist DRC): 0.2358
[3]; azi-ECL2, log[agonist] (M) -6.52288, normalized to 1 mM glutamate
  Normalized ΔFRET response, Mean (agonist DRC): 0.04024
[3]; azi-ECL2, log[agonist] (M) -7, normalized to 1 mM glutamate
  Normalized ΔFRET response, Mean (agonist DRC): 0
[3]; azi-ECL2, 100μM agonist, mean of cells, normalized to 1mM glutamate
  Normalized Max ΔFRET, Mean: 104.617
[3]; azi-ECL2 sensor, orthosteric agonist alone
  Hill slope: 1.14
[3]; read-out: EC50, live-cell FRET titration, azi-ECL2 sensor, (2R,4R)-APDC, individual cell values (N=13)
  EC50: 8.97 µM and 10.9 µM and 18.9 µM and 4.32 µM and 2.57 µM and 2.14 µM and 6.27 µM and 6.18 µM and 3.15 µM and 4.64 µM and 4.05 µM and 5.53 µM
[3]; read-out: Mean half-maximum effective concentration (EC50), azi-ECL2 sensor, orthosteric agonist alone
  EC50: 6.7 µM
[4]; 100 μM DCG-IV, 10 μM LY379268, 300 μM APDC, normalized to 1 mM glutamate, single replicate
  Normalized Max Intracellular Ca2+ Response, individual experiments: 1.151 and 1.196 and 0.9567
[4]; 1 mM Glu, 100 μM DCG-IV, 10 μM LY379268, 300 μM APDC, normalized to 1 mM glutamate
  Normalized Max Intracellular Ca2+ Response, mean: 1.101
[4]; log[agonist] (M) -3.52288
  Intracellular Ca2+ response, Mean: 1.101
  Intracellular Ca2+ response: 1.101
[4]; log[agonist] (M) -3.82391
  Intracellular Ca2+ response, Mean: 1.121
  Intracellular Ca2+ response: 1.13 and 1.129 and 1.105
[4]; log[agonist] (M) -4
  Intracellular Ca2+ response, Mean: 1.103
  Intracellular Ca2+ response: 1.155 and 1.085 and 1.068
[4]; log[agonist] (M) -4.52288
  Intracellular Ca2+ response, Mean: 0.9624
  Intracellular Ca2+ response: 0.9835 and 0.9555 and 0.9483
[4]; log[agonist] (M) -5
  Intracellular Ca2+ response, Mean: 0.7274
  Intracellular Ca2+ response: 0.6253 and 0.7115 and 0.8453
[4]; log[agonist] (M) -5.39794
  Intracellular Ca2+ response, Mean: 0.3932
  Intracellular Ca2+ response: 0.2825 and 0.3895 and 0.5075
[4]; log[agonist] (M) -6
  Intracellular Ca2+ response, Mean: 0
  Intracellular Ca2+ response: 0
[4]; log[agonist] (M) -6.52288
  Intracellular Ca2+ response, Mean: 0
  Intracellular Ca2+ response: 0
[4]; log[agonist] (M) -7
  Intracellular Ca2+ response, Mean: 0
  Intracellular Ca2+ response: 0
[4]; log[agonist] (M) -7.69897
  Intracellular Ca2+ response, Mean: 0
  Intracellular Ca2+ response: 0
[4]; log[agonist] (M) -8
  Intracellular Ca2+ response, Mean: 0
  Intracellular Ca2+ response: 0
[4]; one value per experiment, read-out: EC50, intracellular Ca2+ response
  EC50: 4.48 µM and 8.58 µM and 6.56 µM
